Legend:
[1] = Fluorescence microscopy of skin distribution after microinjection into hairless rat skin; assay type: in vivo
Source text: FIG. 17A-B are micrographs showing hairless rat skin microinjected in vivo with FITC-insulin. Histological sections are shown using brightfield microscopy with H&E staining (FIG. 17A) and fluorescence microscopy showing injection and distribution of insulin in the skin (FIG. 17B). Scale bar=100 μm. Single, hollow, glass microneedles were inserted into the back skin of anesthetized rats placed in a prone position or into human cadaver skin (2×2 cm^2) placed on a x-y stage. Compounds delivered included blue tissue-marking dye in PBS (20% v/v, Shandon, Pittsburg, Pa.), green-fluorescent calcein in PBS (10 μM-10 mM, Molecular Probes, Eugene, Oreg.). After microinfusion experiments, skin samples were preserved as described in Example 1. Histological sections of skin were examined by stereoscopic (SZX12, Olympus, Melville, N.Y.) and fluorescence microscopy (IX 70, Olympus). Images were recorded by a digital camera (Spot RT Slider camera, Model 231, Diagnostic Instruments, Sterling Heights, Mich.) and analyzed using image analysis software (Image Pro Plus, version 4.5, Media Cybernetics, Silver Spring, Md.). The volume of injected liquid was imaged in the skin for quantitative analysis using one of three different methods. […] During insulin delivery experiments, rats were anesthetized. […]

[2] = test system: diabetic hairless rats; experiment: Blood glucose in diabetic hairless rats after insulin microinfusion through a hollow microneedle; assay type: in vivo, rat
Experimental: During insulin delivery experiments, rats were anesthetized. Microneedle infusion was carried out as described in Example 4, using clinical insulin solution (100 U/ml, Humulin R, Eli Lilly, Indianapolis, Ind.), and FITC-labeled insulin in PBS (1 mg/ml, Sigma).
As a companion experiment, insulin was microinjected into the skin of diabetic hairless rats in vivo and blood glucose concentration was monitored over time. Microinjection was carried out via microneedle insertion to a depth of 500-800 μm and infusing for 30 min. The volume of insulin solution microinjected into diabetic rat skin was 5±1 μl over the 30-min infusion period. Over a 4.5-h monitoring period after infusion, blood glucose level dropped and then plateaued at approximately 25% below pre-treatment values. […] Data expressed as mean±SEM.
Recognizing that needle retraction can increase microinfusion, the insulin delivery experiment was repeated by inserting microneedles to the same initial depth in the skin and then retracting by 150-200 μm back toward the skin surface. […] The volume of insulin solution microinjected into diabetic rat skin after needle retraction was 29±12 μl over the 30-min infusion period. […]

[3] = Effect of hyaluronidase on microneedle infusion flow rate into human cadaver skin in vitro; details: 200 U/ml hyaluronidase in sulforhodamine solution vs without; bevel-tip microneedle inserted 1080 μm; 138 kPa; ANOVA p≦0.01
Experimental: To measure flow rate into skin during microneedle infusion, a single microneedle was inserted into human cadaver skin to microinfuse sulforhodamine solution and the infusion flow rate was measured over time. As an aid to visualizing flow into skin, sulforhodamine-B dye (Molecular Probes, Eugene, Oreg.) was added to PBS, stirred, and filtered (0.2 μm pore size, Nalge Nunc International, Rochester, N.Y.) to make 1×10^−3 M sulforhodamine solution. […]
The flow rate of sulforhodamine solution microinjection was determined by following movement of the gas-liquid meniscus in the syringe reservoir over time with a digital video camera (DCR-TRV460, Sony, Tokyo, Japan) and image analysis software (Adobe Photoshop 7.0, Adobe Systems, San Jose, Calif.) after converting the captured movie into sequences of still images (Adobe Premiere 6.0, Adobe Systems). […]
The effect of hyaluronidase was determined by comparing to an infusion fluid containing 200 U/ml hyaluronidase prepared by mixing 3 ml of hyaluronidase solution (Vitrase™, 200 U/ml, ISTA Pharmaceuticals, Irvine, Calif.) with 7 mL of 1×10^−3 M sulforhodamine solution. […] Microinfusion flow rate was measured as a function of retraction distance during infusion in the absence (white bars) or presence (black bars) of hyaluronidase. Data are expressed as mean values (n≧3) with standard deviation bars. […]

## fluorescently labeled insulin: FITC-labeled insulin in PBS (1 mg/ml, Sigma)
[1]; rat, in vivo
  distribution in skin after microinjection (fluorescence): distribute throughout the dermis

## insulin
[2]; microneedle inserted 500-800 μm, no retraction, 30-min infusion of 100 U/ml insulin solution (5±1 μl injected), 4.5-h monitoring after infusion, plateau
  blood glucose level drop below pre-treatment values: approximately 25%
[2]; microneedle inserted to same depth then retracted 150-200 μm, 30-min infusion of 100 U/ml insulin solution (29±12 μl injected)
  blood glucose level drop below pre-treatment values: approximately 70%

## O=C(O)CN(CC(=O)O)Cc1cc2c(cc1O)Oc1cc(O)c(CN(CC(=O)O)CC(=O)O)cc1C21OC(=O)c2ccccc21 [calcein]
[1]; injection at a specific location within the dermis, histological sections
  distribution in skin after microinjection (fluorescence): fluoresced more uniformly in both dermis and epidermis

## hyaluronidase
[3]
  increase in infusion flow rate: 7 fold

Reference: patent publication US20080269666A1, “Microneedles and Methods for Microinfusion” (GEORGIA TECH RESEARCH CORPORATION, priority 2005, published 2008)
